From PubChem BioAssay (NCI)
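Interpolation was linear, between the two tested concentrations surrounding the appropriate level; five concentrations were tested over 48 hours in 96-well plates. TGI: total growth inhibition.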

Key:
Experiment in all cases: growth of human tumour cells (NCI), 48 h
PC-3 prostate = system: PC-3 prostate
U251 CNS = system: U251 CNS
MALME-3M melanoma = system: MALME-3M melanoma
NCI-H460 lung = system: NCI-H460 lung
MDA-N = system: MDA-N
NCI-H226 lung = system: NCI-H226 lung
A498 renal = system: A498 renal
SK-OV-3 ovarian = system: SK-OV-3 ovarian
OVCAR-3 ovarian = system: OVCAR-3 ovarian
HL-60(TB) leukemia = system: HL-60(TB) leukemia
UACC-257 melanoma = system: UACC-257 melanoma
SNB-75 CNS = system: SNB-75 CNS
IGROV1 ovarian = system: IGROV1 ovarian
HOP-62 NSCLC = system: HOP-62 NSCLC
SK-MEL-5 melanoma = system: SK-MEL-5 melanoma
OVCAR-4 ovarian = system: OVCAR-4 ovarian
NCI-H522 lung = system: NCI-H522 lung
HCT-15 colon = system: HCT-15 colon
RXF 393 renal = system: RXF 393 renal
MDA-MB-231 breast = system: MDA-MB-231 breast
A549 NSCLC = system: A549 NSCLC
BT-549 breast = system: BT-549 breast
HCC-2998 colon = system: HCC-2998 colon
HS 578T breast = system: HS 578T breast
UO-31 renal = system: UO-31 renal
DU-145 prostate = system: DU-145 prostate
CAKI-1 renal = system: CAKI-1 renal
COLO 205 colon = system: COLO 205 colon
CCRF-CEM leukemia = system: CCRF-CEM leukemia
SF-539 CNS = system: SF-539 CNS
HT29 colon = system: HT29 colon
SW-620 colon = system: SW-620 colon
MCF7 breast = system: MCF7 breast
786-0 renal = system: 786-0 renal
LOX IMVI melanoma = system: LOX IMVI melanoma
OVCAR-8 ovarian = system: OVCAR-8 ovarian
T-47D breast = system: T-47D breast
SN12C renal = system: SN12C renal
HOP-92 NSCLC = system: HOP-92 NSCLC
ACHN renal = system: ACHN renal
M14 melanoma = system: M14 melanoma
SK-MEL-28 melanoma = system: SK-MEL-28 melanoma
SNB-19 CNS = system: SNB-19 CNS
EKVX NSCLC = system: EKVX NSCLC
NCI-H23 lung = system: NCI-H23 lung
TK-10 renal = system: TK-10 renal
MDA-MB-435 = system: MDA-MB-435
SK-MEL-2 melanoma = system: SK-MEL-2 melanoma
MOLT-4 leukemia = system: MOLT-4 leukemia
NCI/ADR-RES ovarian = system: NCI/ADR-RES ovarian
OVCAR-5 ovarian = system: OVCAR-5 ovarian
SR leukemia = system: SR leukemia
HCT-116 colon = system: HCT-116 colon
K-562 leukemia = system: K-562 leukemia
KM12 colon = system: KM12 colon
RPMI-8226 leukemia = system: RPMI-8226 leukemia
SF-295 CNS = system: SF-295 CNS
SF-268 CNS = system: SF-268 CNS
UACC-62 melanoma = system: UACC-62 melanoma

Work on `Brc1ccc2[nH]cc(-c3csc(-c4ccccn4)n3)c2c1` yielded a TGI (PC-3 prostate) of 51.7 µM, a TGI (U251 CNS) of 36.4 µM and a TGI (MALME-3M melanoma) of 65.2 µM. It also gave a TGI (NCI-H460 lung) of 22.4 µM, a TGI (MDA-N) greater than 100 µM and a TGI (NCI-H226 lung) of 34.8 µM. It also gave a TGI (A498 renal) of 12.4 µM, a TGI (SK-OV-3 ovarian) greater than 100 µM and a TGI (OVCAR-3 ovarian) greater than 38 µM. The TGI (HL-60(TB) leukemia) was greater than 100 µM, the TGI (UACC-257 melanoma) was greater than 85.2 µM and the TGI (SNB-75 CNS) was 36.4 µM. For the same compound, the TGI (IGROV1 ovarian) was greater than 88.8 µM, the TGI (HOP-62 NSCLC) was greater than 45.5 µM and the TGI (SK-MEL-5 melanoma) was 55.9 µM. It also gave a TGI (OVCAR-4 ovarian) greater than 92.8 µM, a TGI (NCI-H522 lung) greater than 100 µM and a TGI (HCT-15 colon) greater than 100 µM. It also gave a TGI (RXF 393 renal) of 18.7 µM, a TGI (MDA-MB-231 breast) greater than 75.4 µM and a TGI (A549 NSCLC) greater than 70.3 µM. For the same compound, the TGI (BT-549 breast) was greater than 100 µM, the TGI (HCC-2998 colon) was 31 µM and the TGI (HS 578T breast) was greater than 100 µM. For the same compound, the TGI (UO-31 renal) was greater than 100 µM, the TGI (DU-145 prostate) was greater than 86.5 µM and the TGI (CAKI-1 renal) was greater than 94.9 µM. It also gave a TGI (COLO 205 colon) greater than 56.3 µM, a TGI (CCRF-CEM leukemia) greater than 100 µM and a TGI (SF-539 CNS) greater than 100 µM. The TGI (HT29 colon) was 38.7 µM, the TGI (SW-620 colon) was 98.6 µM and the TGI (MCF7 breast) was greater than 100 µM. It also gave a TGI (786-0 renal) of 20.3 µM, a TGI (LOX IMVI melanoma) of 33.2 µM and a TGI (OVCAR-8 ovarian) greater than 100 µM. It also gave a TGI (T-47D breast) greater than 100 µM, a TGI (SN12C renal) of 30.7 µM and a TGI (HOP-92 NSCLC) greater than 95.8 µM. For the same compound, the TGI (ACHN renal) was 23.7 µM, the TGI (M14 melanoma) was greater than 100 µM and the TGI (SK-MEL-28 melanoma) was greater than 100 µM. The TGI (SNB-19 CNS) was greater than 100 µM, the TGI (EKVX NSCLC) was 48.2 µM and the TGI (NCI-H23 lung) was greater than 100 µM. It also gave a TGI (TK-10 renal) greater than 100 µM, a TGI (MDA-MB-435) greater than 100 µM and a TGI (SK-MEL-2 melanoma) greater than 100 µM. The TGI (MOLT-4 leukemia) was greater than 53.6 µM, the TGI (NCI/ADR-RES ovarian) was greater than 100 µM and the TGI (OVCAR-5 ovarian) was greater than 100 µM. For the same compound, the TGI (SR leukemia) was 43.6 µM, the TGI (HCT-116 colon) was 50.9 µM and the TGI (K-562 leukemia) was greater than 100 µM. For the same compound, the TGI (KM12 colon) was greater than 100 µM, the TGI (RPMI-8226 leukemia) was 63.7 µM and the TGI (SF-295 CNS) was greater than 26.4 µM. It also gave a TGI (SF-268 CNS) greater than 59.7 µM.

Compound `Cc1cc2nc(C(C)C(=O)c3ccc(Cl)cc3)c(=O)[nH]c2cc1C` (stereo not given) has a TGI (PC-3 prostate) greater than 100 µM, a TGI (U251 CNS) greater than 100 µM and a TGI (MALME-3M melanoma) greater than 100 µM. The TGI (NCI-H460 lung) was greater than 100 µM, the TGI (MDA-N) was 40.4 µM and the TGI (NCI-H226 lung) was 95.1 µM. The TGI (A498 renal) was greater than 100 µM, the TGI (SK-OV-3 ovarian) was greater than 100 µM and the TGI (OVCAR-3 ovarian) was greater than 100 µM. The TGI (HL-60(TB) leukemia) was greater than 100 µM, the TGI (UACC-257 melanoma) was greater than 100 µM and the TGI (SNB-75 CNS) was greater than 100 µM. The TGI (IGROV1 ovarian) was greater than 100 µM, the TGI (HOP-62 NSCLC) was greater than 100 µM and the TGI (SK-MEL-5 melanoma) was greater than 100 µM. It also gave a TGI (OVCAR-4 ovarian) greater than 100 µM, a TGI (NCI-H522 lung) greater than 100 µM and a TGI (UACC-62 melanoma) greater than 100 µM. For the same compound, the TGI (HCT-15 colon) was greater than 100 µM, the TGI (RXF 393 renal) was greater than 100 µM and the TGI (MDA-MB-231 breast) was greater than 100 µM. For the same compound, the TGI (A549 NSCLC) was greater than 100 µM, the TGI (BT-549 breast) was greater than 100 µM and the TGI (HCC-2998 colon) was 33.1 µM. The TGI (HS 578T breast) was greater than 100 µM, the TGI (UO-31 renal) was greater than 100 µM and the TGI (DU-145 prostate) was greater than 100 µM. It also gave a TGI (CAKI-1 renal) greater than 100 µM, a TGI (COLO 205 colon) of 53.7 µM and a TGI (CCRF-CEM leukemia) greater than 100 µM. For the same compound, the TGI (SF-539 CNS) was 93.1 µM, the TGI (HT29 colon) was 66.4 µM and the TGI (SW-620 colon) was greater than 100 µM. It also gave a TGI (MCF7 breast) greater than 100 µM, a TGI (786-0 renal) of 92.3 µM and a TGI (LOX IMVI melanoma) greater than 100 µM. It also gave a TGI (OVCAR-8 ovarian) greater than 100 µM, a TGI (T-47D breast) greater than 100 µM and a TGI (SN12C renal) greater than 100 µM. The TGI (HOP-92 NSCLC) was greater than 100 µM, the TGI (ACHN renal) was greater than 100 µM and the TGI (M14 melanoma) was greater than 100 µM. It also gave a TGI (SK-MEL-28 melanoma) greater than 100 µM, a TGI (SNB-19 CNS) greater than 100 µM and a TGI (EKVX NSCLC) of 64.3 µM. The TGI (NCI-H23 lung) was greater than 100 µM, the TGI (TK-10 renal) was 75.2 µM and the TGI (MDA-MB-435) was 49.6 µM. It also gave a TGI (SK-MEL-2 melanoma) greater than 100 µM, a TGI (MOLT-4 leukemia) greater than 100 µM and a TGI (NCI/ADR-RES ovarian) greater than 100 µM. It also gave a TGI (OVCAR-5 ovarian) greater than 100 µM, a TGI (SR leukemia) of 97.6 µM and a TGI (HCT-116 colon) greater than 100 µM. The TGI (K-562 leukemia) was greater than 100 µM, the TGI (KM12 colon) was greater than 100 µM and the TGI (RPMI-8226 leukemia) was greater than 100 µM. It also gave a TGI (SF-295 CNS) greater than 100 µM and a TGI (SF-268 CNS) greater than 100 µM.

Work on `O=C1c2c(Cl)c(Cl)c(Cl)c(Cl)c2C(=O)N1CCN(c1c(Cl)ssc1=O)c1c(Cl)ssc1=O` yielded a TGI (PC-3 prostate) of 56.8 µM, a TGI (U251 CNS) greater than 100 µM and a TGI (MALME-3M melanoma) of 53.6 µM. It also gave a TGI (NCI-H460 lung) greater than 100 µM, a TGI (MDA-N) of 33.3 µM and a TGI (NCI-H226 lung) greater than 100 µM. The TGI (A498 renal) was greater than 100 µM, the TGI (SK-OV-3 ovarian) was greater than 100 µM and the TGI (OVCAR-3 ovarian) was 36.6 µM. For the same compound, the TGI (HL-60(TB) leukemia) was greater than 100 µM, the TGI (UACC-257 melanoma) was 31.5 µM and the TGI (SNB-75 CNS) was greater than 100 µM. For the same compound, the TGI (IGROV1 ovarian) was greater than 100 µM, the TGI (HOP-62 NSCLC) was greater than 100 µM and the TGI (SK-MEL-5 melanoma) was greater than 100 µM. It also gave a TGI (OVCAR-4 ovarian) of 40.2 µM, a TGI (NCI-H522 lung) of 57.8 µM and a TGI (UACC-62 melanoma) of 44.4 µM. For the same compound, the TGI (HCT-15 colon) was 41.1 µM, the TGI (RXF 393 renal) was 34.4 µM and the TGI (MDA-MB-231 breast) was greater than 100 µM. For the same compound, the TGI (A549 NSCLC) was greater than 100 µM, the TGI (BT-549 breast) was greater than 100 µM and the TGI (HCC-2998 colon) was 58.8 µM. The TGI (HS 578T breast) was greater than 100 µM, the TGI (UO-31 renal) was 32.3 µM and the TGI (DU-145 prostate) was 36.7 µM. For the same compound, the TGI (CAKI-1 renal) was 34.7 µM, the TGI (COLO 205 colon) was 35 µM and the TGI (CCRF-CEM leukemia) was 72 µM. For the same compound, the TGI (SF-539 CNS) was 35.4 µM, the TGI (HT29 colon) was 35.6 µM and the TGI (SW-620 colon) was 61.9 µM. It also gave a TGI (MCF7 breast) of 44.8 µM, a TGI (786-0 renal) of 32.8 µM and a TGI (LOX IMVI melanoma) of 48.5 µM. It also gave a TGI (OVCAR-8 ovarian) of 44.6 µM, a TGI (T-47D breast) of 44.5 µM and a TGI (SN12C renal) of 47.7 µM. The TGI (HOP-92 NSCLC) was 35.5 µM, the TGI (ACHN renal) was 32.9 µM and the TGI (M14 melanoma) was 46.2 µM. For the same compound, the TGI (SK-MEL-28 melanoma) was greater than 100 µM, the TGI (SNB-19 CNS) was greater than 100 µM and the TGI (EKVX NSCLC) was 88.6 µM. It also gave a TGI (NCI-H23 lung) greater than 100 µM, a TGI (TK-10 renal) of 33.5 µM and a TGI (MDA-MB-435) of 45.4 µM. It also gave a TGI (SK-MEL-2 melanoma) of 54.3 µM, a TGI (MOLT-4 leukemia) of 37.7 µM and a TGI (NCI/ADR-RES ovarian) greater than 100 µM. It also gave a TGI (OVCAR-5 ovarian) greater than 100 µM, a TGI (SR leukemia) of 44.7 µM and a TGI (HCT-116 colon) of 29.9 µM. For the same compound, the TGI (K-562 leukemia) was 53.4 µM, the TGI (KM12 colon) was greater than 100 µM and the TGI (SF-295 CNS) was greater than 100 µM. For the same compound, the TGI (SF-268 CNS) was greater than 100 µM.
